Reference: PMC2120067 (The Journal of Cell Biology, 1994)

Legend:
[1] = Copper-binding study by electrospray mass spectrometry; conditions: 10 µM KGHK and KGRK mixed with 8 µM Cu2+, electrospray MS
[2] = tested on: chicken chorioallantoic membrane (CAM); assay: CAM angiogenesis assay; assay type: in vivo; conditions: methylcellulose disk on chick CAM
[3] = Magnesium-binding control by electrospray mass spectrometry; conditions: 20 µM KGHK + 50 µM MgSO4 in 20 mM NH4HCO3 (pH 7.5), electrospray MS
[4] = Spectroscopic analysis of copper binding; conditions: saturable; not displaced with 100-fold excesses of Na, K, Ca, or Mg ions; not shown
[5] = tested on: new vessel growth in vivo; conditions: ref Raju et al., 1982; cited from earlier work
[6] = tested on: angiogenic bovine aortic endothelial (BAE) cells; assay: Quantitation of endothelial cord formation; assay type: cell-based

Substance: KGHK [N-lysyl-L-glycyl-L-histidyl-L-lysine- OH]
- Direct competition for limiting copper ions [1]: all copper ions were sequestered in a KGHK:Cu complex
- Lowest application eliciting angiogenic activity in the CAM [2]: 50 ng/disk
- Formation of 1:1 complex with magnesium [3]: did not form
- Change of absorbance on addition of copper ions [4]: increase in absorbance at 580 nm

Substance: N-gly- cyl-L-histidyl-L-lysine-OH [GHK]
- Stimulation of new vessel growth in vivo [5]: little effect
- Stimulation of endothelial cord formation, peptide pretreated with CuSO4 ([6]; pretreatment of peptide with CuSO4, not shown): significant angiogenic stimulation

Substance: bovine serum albumin: control protein [reference compound]
- Stimulation of endothelial cord formation ([6]; bovine serum albumin, concentration not given): no stimulatory effect
